Data from patent US10100043B2, “Substituted aldehyde compounds and methods for their use in increasing tissue oxygenation” (Global Blood Therapeutics, Inc., priority 2013, dated 2018).

What was measured:
HbS/A = biological target: T1, HbS/A (Homo sapiens, UniProt P68871+P69905, E7V); test: Relaxed-to-tense transition assay (R/T assay); assay type: biochemical; details: compounds tested at 9 μM; 3 μM HbS/A, 30 μM DPG, 1 hr at 37° C., deoxygenation with N2
T1 construct: A mixture of HbS/A was purified from blood; from tissue; host or cells: blood of homozygous sickle cell patients (CHORI)
Procedure: A relaxed-to-tense transition assay (“R/T assay”) was used to determine the ability of substituted benzaldehyde compounds to maintain the high-oxygen affinity relaxed (R) state of hemoglobin under deoxygenated conditions. This ability can be expressed as a “delta R” value (i.e., the change in the time-period of the R state after hemoglobin is treated with a compound, as compared to the period without treatment with the compound). Delta R is the % R to remaining after the compounds treatment compared with no treatment (e.g. if R % without treatment is 8% while with treatment with a target compound is 48% R at 30 μM, then % R is 40% for that compound.
A mixture of HbS/A was purified from blood obtained from homozygous sickle cell patients though the Hemoglobinopathy Center at Children's Hospital Oakland Research Institute (CHORI) with Institutional Review Board approval. HbS/A (at a final concentration of 3 μM) was incubated for 1 hr at 37° C. in presence or absence of compounds in […] potassium phosphate buffer, pH=7.4 and 30 μM 2, 3 diphosphoglycerate (DPG) in 96 well plates in a final volume of 160 μl. Compounds were added at different concentrations (3 μM to 100 μM final concentrations). Plates were covered with a Mylar film. After incubation was completed the Mylar cover was removed and the plates were placed in a Spectrostar Nano plate reader previously heated at 37° C. Five minutes later, N2 (flow rate=20 L/min) was flowed through the spectrophotometer. Spectroscopic measurements (300 nm to 700 nm) were taken every 5 min for 2 hours. Data analysis was performed by using linear regression from the data retrieved for all wavelengths.
Table 4 below lists the delta R values where + indicates a delta R of between 0 and 30, ++ indicates a delta R of between 30 and 50, and +++ indicates a delta R of 50 or greater. Unless noted otherwise, the compounds in Table 2 were tested at 9 μM.

[1] = tested on: whole blood from homozygous sickle cell patients; test: Whole blood assay: oxygen equilibrium curves of whole blood, HEMOX analyzer; assay type: cell-based, human; details: compounds tested at 1000 μM; hematocrit 20%, 1 hour at 37° C.
Procedure: Oxygen Equilibrium Curves (OEC) of whole blood before and after treatment with different concentrations of substituted benzaldehyde compounds were performed as follows using a HEMOX analyzer (TCS Scientific, New Hope, Pa.). Blood samples from homozygous sickle cell patients were obtained though the Hemoglobinopathy Center at Children's Hospital Oakland Research Institute (CHORI) with Institutional Review Board approval. The hematocrit was adjusted to 20% using autologous plasma and the blood samples were incubated for 1 hour at 37° C. in absence or presence of compounds. 100 μl of these samples were added to 5 mL of Hemox buffer (30 mM TES, 130 mM NaCl, 5 mM KCl, pH=7.4) at 37° C. and then transferred to the Hemox sample chamber. The samples were saturated with oxygen by flushing with compressed air for 10 minutes. The samples were then flushed with pure nitrogen and the respective absorbances of oxy- and deoxy-Hb are recorded as a function of the solution pO2. The oxygen equilibrium data were then fitted to the Hill Model to obtain values for p50. The deoxygenation curves for both whole blood alone (control) and whole blood in the presence of the compound were collected with the TCS software.
Table 5 below lists the delta p50% values where + indicates a delta p50% of between 0 and 29, ++ indicates a delta p50% of between 30 and 50, and +++ indicates a delta p50% of 50 or greater. The compounds in Table 2 were tested at 1000 μM.

[2] = biological target: T2, purified Hemoglobin S (HbS) (Homo sapiens, UniProt P68871+P69905, E7V); test: Modulation of hemoglobin oxygen affinity: oxygen equilibrium curves (OEC) in purified HbS, HEMOX analyzer; assay type: biochemical; details: compounds tested at 30 μM; 25 μM purified HbS, 45 min at 37° C., pH 7.4
T2 construct: HbS was purified by a modified procedure; from tissue; host or cells: blood of homozygous sickle cell patients (CHORI)
Procedure: Oxygen equilibrium curves (OEC) in purified Hemoglobin S (HbS) were measured by the change in p50, the partial pressure of oxygen at which the heme binding sites in the HbS sample are 50% saturated with oxygen. HbS was purified by a modified procedure (Antonini and Brunori, 1971; Hemoglobin and Myoglobin in their Reactions with Ligands; North Holland Publishing Company; Amsterdam, London) from blood obtained from homozygous sickle cell patients though the Hemoglobinopathy Center at Children's Hospital Oakland Research Institute (CHORI) with Institutional Review Board approval. Oxygen equilibrium curves were carried out with a HEMOX analyzer, (TCS Scientific, New Hope, Pa.). Five hundred μL of 250 μM purified HbS were diluted into 4.5 mL of HEMOX buffer (30 mM TES, 130 mM NaCl, 5 mM KCl, pH=7.4) resulting in a final hemoglobin concentration of 25 μM. The compounds were added at the final desired concentrations. The mixture was incubated for 45 min at 37° C. and then transferred to the Hemox sample chamber. The samples were saturated with oxygen by flushing with compressed air for 10 minutes. The samples were then flushed with pure nitrogen and the absorbance of deoxy-Hb was recorded as a function of the solution pO2. The oxygen equilibrium data was then fit to the Hill Model to obtain values for p50. The deoxygenation curves for both HbS alone (control) and HbS in the presence of compound were collected with the TCS software. The p50 for purified Hbs was typically 13.8±1.6. Delta p50 values were obtained from the p50 value for control minus the p50 value for HbS treated with compound divided by the p50 value for the control.
The compounds of Table 1 that were where tested in the assay above were all found to have positive delta p50 values. Delta p50% is calculated from [[p50(HbS)-p50(HbS treated with compound)]/p50(HbS)]×100. Table 2 below lists the delta p50% values where + indicates a delta p50% of between 0 and 29 and ++ indicates a delta p50% of 30 or greater. Unless noted otherwise, the compounds in Table 2 were tested at 30 μM.

purified HBS = biological target: T3, purified HBS (Homo sapiens, UniProt P68871+P69905, E7V); test: HbS polymerization assay (delay time, absorbance at 700 nm); assay type: biochemical; details: percent delay (% DT) of polymerization vs HBS alone; 50 μM purified HBS, 1.8 M potassium phosphate pH 7.4
T3 construct: HbS is purified by the CRO VIRUSYS, from blood obtained from homozygous sickle cell patients; tissue VIRUSYS (CRO that did the purification); host or cells: blood of homozygous sickle cell patients (CHORI)
Procedure: Polymerization assays are carried out in vitro using purified HBS exchanged into 1.8 M potassium phosphate buffer at pH 7.4. Using a slightly modified protocol (Antonini and Brunori, 1971), HbS is purified by the CRO VIRUSYS, from blood obtained from homozygous sickle cell patients through the Hemoglobinopathy Center at Children's Hospital Oakland Research Institute (CHORI) with Institutional Review Board approval. Compounds are prepared in 100% DMSO and a desired amount is added to 50 μM of purified HBS at a final DMSO concentration of 0.3%. Final potassium phosphate concentration is adjusted to 1.8 M using a combination of 2.5 M potassium phosphate stock solution and water at pH 7.4. The reaction mixture is incubated for an hour at 37° C. and then transferred into a 24-well plate for deoxygenation in a glove box containing 99.5% nitrogen and 0.5% oxygen. The 24-well plate is not covered and incubated at 4° C. on a plate cooler inside the glove box for one and a half hours. Fifty μL of the reaction mixture is transferred into a 96-well plate and the absorbance at 700 nm is measured every minute for one hour at 37° C. in a plate reader located inside the glove box. A plot of the absorbance against time is fitted using a Boltzman sigmoidal fit and the delay time (from zero to time at half Vmax) is measured. To compare and rank compounds, delay times are expressed as percent delay (% DT), which is defined as the difference in delay times for HBS/compound and HBS alone multiplied by 100 and divided by the delay time for HBS alone.
Compounds listed below have been tested in the polymerization assay. Activity ranges are defined by the number of dagger (†) symbols indicated. † denotes activity ≥40% but ≤80%; †† denotes activity >80% but ≤120%; ††† denotes activity >120% but ≤140%; †††† denotes activity >160%.

[3] = tested on: Transgenic mice producing human HbS; details: extreme hypoxia (5% oxygen), cited from earlier work

With `O=Cc1c(O)cccc1OC[C@H]1CCC[C@@H](C(=O)O)C1` (relative stereo) [Compound 5, cis-3-((2-formyl-3-hydroxyphenoxy)methyl)cyclohexanecarboxylic acid] the “delta R (%)” value (HbS/A) was “+++ (+++ indicates a delta R of 50 or greater)”, the “delta p50%” value [1] was “++ (++ indicates a delta p50% of between 30 and 50)” and the “delta p50” value [2] was “++ (++ indicates a delta p50% of 30 or greater)”. The “% delta Delay” value (purified HBS) was “†††† (†††† denotes activity >160%)”.
For `COC(=O)[C@H]1CC[C@@H](COc2cccc(O)c2C=O)CC1` [Compound 1, cis-methyl 4-((2-formyl-3-hydroxyphenoxy)methyl)cyclohexanecarboxylate], the “delta R (%)” value (HbS/A) was “+++ (+++ indicates a delta R of 50 or greater)”, the “delta p50%” value [1] was “+ (+ indicates a delta p50% of between 0 and 29)” and the “delta p50” value [2] was “++ (++ indicates a delta p50% of 30 or greater)”. The “% delta Delay” value (purified HBS) was “†† (†† denotes activity >80% but ≤120%)”.
For `O=Cc1c(O)cccc1OC[C@H]1CC[C@@H](C(=O)O)CC1` [Compound 2, cis-4-((2-formyl-3-hydroxyphenoxy)methyl)cyclohexanecarboxylic acid], the “delta R (%)” value (HbS/A) was “++ (++ indicates a delta R of between 30 and 50)”, the “delta p50%” value [1] was “++ (++ indicates a delta p50% of between 30 and 50)” and the “delta p50” value [2] was “++ (++ indicates a delta p50% of 30 or greater)”. The “% delta Delay” value (purified HBS) was “†††† (†††† denotes activity >160%)”.
For `COC(=O)[C@H]1CC[C@H](COc2cccc(O)c2C=O)CC1` [Compound 4, trans-methyl 4-((2-formyl-3-hydroxyphenoxy)methyl)cyclohexanecarboxylate], the “delta R (%)” value (HbS/A) was “+++ (+++ indicates a delta R of 50 or greater)”, the “delta p50%” value [1] was “+ (+ indicates a delta p50% of between 0 and 29)” and the “delta p50” value [2] was “++ (++ indicates a delta p50% of 30 or greater)”. For the same compound, the “% delta Delay” value (purified HBS) was “††† (††† denotes activity >120% but ≤140%)”.
For `O=Cc1ccc(CO)o1` [Compound 5HMF, 5-hydroxymethyl-2-furfuraldehyde], the “hypoxia-induced sickled red blood cells” value ([3]; compared to non-treated mice) is listed as “reduced amounts of hypoxia-induced sickled red blood cells” and the survival times [3] is listed as “significantly improved survival times”.
In the case of `O=Cc1c(O)cccc1OC[C@H]1CC[C@H](C(=O)O)CC1` [Compound 6, trans-4-((2-formyl-3-hydroxyphenoxy)methyl)cyclohexanecarboxylic acid], the “delta p50%” value [1] is reported as “+ (+ indicates a delta p50% of between 0 and 29)”, the “delta p50” value [2] is reported as “++ (++ indicates a delta p50% of 30 or greater)” and the “% delta Delay” value (purified HBS) is reported as “†† (†† denotes activity >80% but ≤120%)”.
For `COC(=O)C1CCCC(COc2cccc(O)c2C=O)C1` (stereo not shown) [Compound 7, methyl 3-((2-formyl-3-hydroxyphenoxy)methyl)cyclohexanecarboxylate], the “delta p50%” value [1] was “+ (+ indicates a delta p50% of between 0 and 29)”, the “delta p50” value [2] was “++ (++ indicates a delta p50% of 30 or greater)” and the “% delta Delay” value (purified HBS) was “†† (†† denotes activity >80% but ≤120%)”.
For `COc1cccc(OC[C@H]2CC[C@H](C(=O)OC)CC2)c1C=O` [Compound 8, trans-methyl 4-((2-formyl-3-methoxyphenoxy)methyl)cyclohexanecarboxylate], the “delta R (%)” value (HbS/A) was “+ (+ indicates a delta R of between 0 and 30)”, the “delta p50” value [2] was “+ (+ indicates a delta p50% of between 0 and 29)” and the “% delta Delay” value (purified HBS) was “† († denotes activity ≥40% but ≤80%)”.
For `COC(=O)C1CCCC(COc2cccc(O)c2C=O)C1` (stereo not shown) [Compound 9, methyl 3-((2-formyl-3-hydroxyphenoxy)methyl)cyclohexanecarboxylate], the “delta R (%)” value (HbS/A) was “+++ (+++ indicates a delta R of 50 or greater)” and the “delta p50” value [2] was “+ (+ indicates a delta p50% of between 0 and 29)”.
For `O=Cc1c(O)cccc1OCC1=C(c2ccccc2)CCCC1` [Compound 10, 2-hydroxy-6-((3,4,5,6-tetrahydro-[1,1′-biphenyl]-2-yl)methoxy)benzaldehyde], the “delta R (%)” value (HbS/A) was “++ (++ indicates a delta R of between 30 and 50)”, the “delta p50%” value [1] was “++ (++ indicates a delta p50% of between 30 and 50)” and the “% delta Delay” value (purified HBS) was “†† (†† denotes activity >80% but ≤120%)”.
In the case of `O=Cc1c(O)cccc1OCC1CCCCC1c1ccccc1` (stereo not shown) [Compound 11, 2-hydroxy-6-((2-phenylcyclohexyl)methoxy)benzaldehyde], the “delta R (%)” value (HbS/A) is reported as “++ (++ indicates a delta R of between 30 and 50)” and the “% delta Delay” value (purified HBS) is reported as “† († denotes activity ≥40% but ≤80%)”.
